Data published in article PMC12398856, “A GLP-1 analogue optimized for cAMP-biased signaling improves weight loss in obese mice” (Molecular Metabolism, 2025).

Tests used:
GLP-1R [1] = target: T1, GLP-1R (Homo sapiens, UniProt P43220); assay: CRE-Luciferase reporter assay (cAMP production) in BHK cells expressing GLP-1R; assay type: cell-based; settings: read-out: Log(data) cAMP EC50 (converted)
Target sequence in this assay (P43220 24-463, species assumed): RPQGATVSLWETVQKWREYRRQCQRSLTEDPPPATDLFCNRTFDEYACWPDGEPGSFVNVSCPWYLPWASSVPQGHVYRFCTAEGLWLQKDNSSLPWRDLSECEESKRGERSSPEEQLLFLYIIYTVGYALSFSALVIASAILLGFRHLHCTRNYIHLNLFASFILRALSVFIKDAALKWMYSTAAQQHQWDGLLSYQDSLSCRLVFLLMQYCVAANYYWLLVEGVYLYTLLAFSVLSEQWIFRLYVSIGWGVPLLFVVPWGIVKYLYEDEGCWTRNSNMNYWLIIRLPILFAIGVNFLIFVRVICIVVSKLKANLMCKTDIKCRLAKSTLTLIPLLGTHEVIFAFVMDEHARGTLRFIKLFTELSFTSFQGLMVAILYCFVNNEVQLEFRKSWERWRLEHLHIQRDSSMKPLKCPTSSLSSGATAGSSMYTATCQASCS
Protocol: Briefly, stably transfected baby hamster kidney (BHK) cell lines expressing GLP-1R and firefly luciferase reporter gene linked to the cAMP response element (CRE) were seeded in poly-D-lysine-coated 96 well opaque well tissue culture plates at 5,000 cells per well in growth media, incubated overnight, and washed once in Dulbecco's phosphase-buffered saline (DPBS). To each well was added 50 μL of assay buffer (DMEM without phenol red, 10 mM HEPES, 1 × Glutamax, 1% ovalbumin, 0.1% Pluronic F-68) containing serial dilutions of test compounds. The test plates were incubated at 37 °C for 3 h in a CO2 incubator, then washed once with 100 uL per well of DPBS followed by addition of 100 μL per well of SteadyLite plus reagent (PerkinElmer). The assay plates were covered to protect reagent from light, shaken at 250 rpm at room temperature for 30 min, and read in a microtiter plate reader. EC50 values were calculated using Prism software (GraphPad) as the nonlinear regression of log(compound concentration) vs. response.

GLP-1R [2] = target: T1, GLP-1R; assay: β-arrestin recruitment (Barr) at GLP-1R, Supplemental Table 1; assay type: cell-based; settings: negative log10 of EC50; read-out: Log(data) Barr EC50 (converted)
Target sequence in this assay (P43220 24-463, species assumed): as above

in vivo = settings: mouse, sc, t1/2
Protocol: Thus, the PK profiles are an overall average of 8 mice/group and 4 mice/subgroup sampled at each time point. […] Briefly, plasma concentration–time profiles were analyzed by a non-compartmental method (Pharsight Phoenix WinNonLin v.6.4). The terminal half-life (t1/2), maximum plasma concentration (Cmax), time for maximum plasma concentration (tmax), and AUC from zero to last (AUC0-t) were determined.
Briefly, plasma proteins were precipitated by mixing plasma samples with 6 volumes of methanol-containing internal standard in micronic 1.5 mL microcentrifuge tubes, followed by centrifugation for 20 min at 13,000×g. The supernatant was transferred to a 96-well plate and diluted with water containing 0.1% formic acid and mixed thoroughly. Diluted samples were injected into the LC-MS/MS system. […] The mass spectrometric detection was performed on a Thermo Scientific TSQ Quantis triple quadrupole system with electrospray ionization in positive ion mode.

GLP-1R [3] = target: T1, GLP-1R; assay: BRET-based cAMP production assay (CAMYEL sensor) in GLP-1R+ HEK293T cells; assay type: cell-based; set-up: host or cells: HEK293T (ATCC), transient transfection with Lipofectamine 2000
Target sequence in this assay (P43220 24-463): as the sequence (P43220 24-463, species assumed) above
Protocol: Briefly, HEK293T cells (ATCC) were cultured in Dulbecco's Modified Eagle Medium (DMEM) supplemented with 10% heat-inactivated fetal bovine serum (FBS), 100 IU/mL of penicillin, and 100 mg/mL of streptomycin solution. […] BRET measurements were taken every 60 s using a PHERAstar FS multi-mode microplate reader. Ligand-induced dynamics in GLP-1R signaling or trafficking were measured as subsequent changes relative to baseline (after time point zero). Each experiment was independently performed at least three times, with at least three technical replicates for each group. Positive or negative incremental areas under the curve (iAUC) were calculated and represented for dose–response relationships.

Structure (SMILES): CC[C@H](C)[C@H](NC(=O)[C@H](Cc1ccccc1)NC(=O)[C@H](CCC(=O)O)NC(=O)[C@H](CCCNC(=N)N)NC(=O)[C@H](C)NC(=O)[C@H](C)NC(=O)[C@H](CCC(N)=O)NC(=O)[C@H](CCC(=O)O)NC(=O)[C@H](CCC(=O)O)NC(=O)[C@H](CC(C)C)NC(=O)[C@H](Cc1ccc(O)cc1)NC(=O)[C@H](CO)NC(=O)[C@H](CO)NC(=O)[C@@H](NC(=O)[C@H](CC(=O)O)NC(=O)[C@H](CO)NC(=O)[C@@H](NC(=O)[C@H](Cc1ccccc1)NC(=O)[C@@H](NC(=O)CNC(=O)[C@H](CCC(=O)O)NC(=O)[C@H](Cc1c[nH]c2ccccc12)NC(=O)CCc1c[nH]cn1)[C@@H](C)O)[C@@H](C)O)C(C)C)C(=O)N[C@@H](C)C(=O)N[C@@H](Cc1c[nH]c2ccccc12)C(=O)N[C@@H](CC(C)C)C(=O)N[C@H](C(=O)N[C@@H](CCCNC(=N)N)C(=O)NCC(=O)N[C@@H](CCCNC(=N)N)C(=O)N[C@@H](CCCCNC(=O)COCCOCCNC(=O)COCCOCCNC(=O)CC[C@H](NC(=O)CCCCCCCCCCCCCCCCC(=O)O)C(=O)O)C(=O)O)C(C)C [NNC5840]
- EC50 (GLP-1R [1]): 0.0192 nM
- EC50 (GLP-1R [2]): 20.1 nM
- half-life (in vivo): 21.7 h
- EC50 (GLP-1R [3]): 73.9 nM
